Test results from paper PMC7369900 (International Journal of Molecular Sciences, 2020).
In brackets after ≈: the same amount, converted by molar mass.

Assays:
S. aureus ATCC 29213 = assay: microbe, parasite or virus in culture; type: cell-based, Staphylococcus aureus; conditions: S. aureus ATCC 29213, MHB
Description: (§1) The antibacterial activity of TP10-NH2-based conjugates, as well as its constituents, was evaluated by microdilution assay in Mueller Hinton broth, MHB (Table 1). […] There are, however, some exceptions. […] Its activity against two other tested bacteria was somewhat lower though.
(§2) The antibacterial activity (bacteriostatic: MIC and bactericidal: MBC) of the tested compounds was determined in MHB (Mueller Hinton Broth, Sigma Aldrich, St. Louis, MO, USA) using a serial two-fold dilution method in 96-well microtiter plates according to CLSI recommendations, described in M07-A10 document. The exact conditions have been described previously. All experiments were performed in three replicates. The MIC90 and MIC50 values were defined as the concentrations of compounds tested that caused a 90% or 50% reduction of growth, respectively, comparing to the drug-free control.

[1] = system: S. epidermidis ATCC 12228; assay: microbe, parasite or virus in culture; type: cell-based, Staphylococcus epidermidis; conditions: S. epidermidis ATCC 12228, MHB
Description: as §1, §2

E. coli ATCC 25922 = assay: microbe, parasite or virus in culture; type: cell-based, Escherichia coli; conditions: E. coli ATCC 25922, MHB
Description: as §1, §2

P. aeruginosa ATCC 27853 = assay: microbe, parasite or virus in culture; type: cell-based, Pseudomonas aeruginosa; conditions: P. aeruginosa ATCC 27853, MHB
Description: as §1, §2

bacteria = assay: Influence of salts: antibacterial activity in MHB2 compared to MHB; type: cell-based; conditions: MHB2: Ca(II) 20–25 mg/L, Mg(II) 10–12.5 mg/L
Description: Additionally, for selected compounds, the aspect of the influence of salts present in the medium on antimicrobial activity was evaluated. […] In the salt-enriched medium, the MIC values determined for TP10-NH2 were up to 40-fold higher than those found in MHB. The phenomenon of reduction of the growth inhibitory activity of antimicrobial peptides at a high salt concentration was previously evidenced by other researchers. It may cause severe limitations for AMPs’ usage as therapeutic agents because of the risk of potential inactivation by salts present in the human body.

HEK 293 [2] = assay: cells; type: cell-based, human; conditions: HEK 293, 72 h, MTT
Description: (§3) Among the conjugates, LVXC-S-S-CTP10-NH2 (5) was the least cytotoxic. […] In the case of HEK 293 and LLC-PK1 cells, the IC50 values of 5 were nearly four times higher. […] Additionally, we noted that the cancer cells Hep G2 were less sensitive to the action of the given compounds than the non-cancer cells (HEK 293 and LLC-PK1).
(§4) Cytotoxicity was assessed against three mammalian cell lines: LLC-PK1, Hep G2, and HEK 293. Multiwell (96–well) plates were seeded at 7000 cells/well in Medium 199 supplemented with 7.5% FBS, MEM Eagle’s medium supplemented with 10% FBS, or DMEM medium supplemented with 10% FBS, respectively. All media were supplemented with L-glutamine and antibiotics (penicillin/streptomycin). Cells were allowed to attach overnight. Drugs were dissolved in cell culture medium and added to wells in 100-µL aliquots of 2× concentrated solutions, in triplicates. To control wells, 100 µL of the medium were added. Cells were incubated with the studied compounds for 72 h at 37 °C and 95%/5% or 90%/10% (HEK 293 cells) CO2 atmosphere. Then, 20-µL aliquots of MTT solution in PBS (4 mg/mL) were added to all wells and plates were incubated further for 3 h in 37 °C. Formazan crystals formed were dissolved in 100 µL of DMSO and the absorbance of the solutions was measured using a multiwell plate reader (Spark, Tecan, Männedorf, Switzerland) at λ = 540 nm. Cytotoxicity was determined compared to the drug-free control. All experiments were performed in triplicates.

Hep G2 = assay: cells; type: cell-based, human; conditions: Hep G2, 72 h, MTT
Description: as §3, §4

LLC-PK1 = assay: cells; type: cell-based, pig; conditions: LLC-PK1, 72 h, MTT
Description: as §3, §4

[3] = system: C. albicans Δopt1Δopt5Δptr2Δptr22
[4] = system: Gram-positive and Gram-negative bacteria; type: cell-based; conditions: MHB, four bacteria
Description: as §1, §2

HEK 293 [5] = assay: ROS generation (CM-H2DCFDA, flow cytometry); type: cell-based, human; conditions: positive cells in 24 h, class
Description: (§5) In the positive controls treated with H2O2, the fraction of ROS-positive cells exceeded 75%. […] Strikingly, in HL-60, a biologically significant effect was observed almost immediately (after 15 min of incubation). The same was noted after 1 h in the HEK 293 cell line. […] Similarly, conjugates 4 and 5 generated ROS at the low level (less than 15% for HL-60 and less than 20% for HEK 293) (manuscript in preparation). […] For HL-60, the critical level of ROS was noted after 15 min of incubation.
(§6) ROS generation activity was evaluated as described previously. Briefly, HEK 293 cells were seeded on 35-mm Petri dishes in the amount of 15,000 cells per plate for 24 h in DMEM medium. […] Positive controls contained 250 µM H2O2, while negative controls were without any additions. After 0.5, 2.5, 5.5, and 24 h of incubation at 37 °C, the CM-H2DCFDA molecular probe (Thermo Fischer Scientific, Waltham, USA) was added to the plates and incubation was continued for another 0.5 h. The HEK 293 cells were detached with 0.05% trypsin solution in PBS and HBSS (Hank’s Balanced Salt Solution) and suspended in fresh DMEM medium. All samples were additionally stained with 7-AAD (7-aminoactinomycin D, 0.8 µg/mL) and immediately analysed with a Guava easyCyte flow cytometer (Merc, Burlington, USA). The determinations were performed in triplicates.

HL-60 = assay: ROS generation (CM-H2DCFDA, flow cytometry); type: cell-based, human; conditions: positive cells in 24 h, class
Description: as §5, §6

HL-60 and HEK 293 cells = assay: ROS generation, statements not split by cell line; type: cell-based, human; conditions: cell line not specified
Description: as §5, §6

human red blood cells = assay: Hemolysis assay; conditions: 1 h, 37 °C
[6] = molecular target: T1, yeast DNA topoisomerase II (Saccharomyces cerevisiae, UniProt P06786); assay: biochemical; type: biochemical; conditions: class; read-out: Topoisomerase II Inhibition
T1 construct: purchased Inspiralis (Norwich, UK)
T1 sequence (P06786 whole entry): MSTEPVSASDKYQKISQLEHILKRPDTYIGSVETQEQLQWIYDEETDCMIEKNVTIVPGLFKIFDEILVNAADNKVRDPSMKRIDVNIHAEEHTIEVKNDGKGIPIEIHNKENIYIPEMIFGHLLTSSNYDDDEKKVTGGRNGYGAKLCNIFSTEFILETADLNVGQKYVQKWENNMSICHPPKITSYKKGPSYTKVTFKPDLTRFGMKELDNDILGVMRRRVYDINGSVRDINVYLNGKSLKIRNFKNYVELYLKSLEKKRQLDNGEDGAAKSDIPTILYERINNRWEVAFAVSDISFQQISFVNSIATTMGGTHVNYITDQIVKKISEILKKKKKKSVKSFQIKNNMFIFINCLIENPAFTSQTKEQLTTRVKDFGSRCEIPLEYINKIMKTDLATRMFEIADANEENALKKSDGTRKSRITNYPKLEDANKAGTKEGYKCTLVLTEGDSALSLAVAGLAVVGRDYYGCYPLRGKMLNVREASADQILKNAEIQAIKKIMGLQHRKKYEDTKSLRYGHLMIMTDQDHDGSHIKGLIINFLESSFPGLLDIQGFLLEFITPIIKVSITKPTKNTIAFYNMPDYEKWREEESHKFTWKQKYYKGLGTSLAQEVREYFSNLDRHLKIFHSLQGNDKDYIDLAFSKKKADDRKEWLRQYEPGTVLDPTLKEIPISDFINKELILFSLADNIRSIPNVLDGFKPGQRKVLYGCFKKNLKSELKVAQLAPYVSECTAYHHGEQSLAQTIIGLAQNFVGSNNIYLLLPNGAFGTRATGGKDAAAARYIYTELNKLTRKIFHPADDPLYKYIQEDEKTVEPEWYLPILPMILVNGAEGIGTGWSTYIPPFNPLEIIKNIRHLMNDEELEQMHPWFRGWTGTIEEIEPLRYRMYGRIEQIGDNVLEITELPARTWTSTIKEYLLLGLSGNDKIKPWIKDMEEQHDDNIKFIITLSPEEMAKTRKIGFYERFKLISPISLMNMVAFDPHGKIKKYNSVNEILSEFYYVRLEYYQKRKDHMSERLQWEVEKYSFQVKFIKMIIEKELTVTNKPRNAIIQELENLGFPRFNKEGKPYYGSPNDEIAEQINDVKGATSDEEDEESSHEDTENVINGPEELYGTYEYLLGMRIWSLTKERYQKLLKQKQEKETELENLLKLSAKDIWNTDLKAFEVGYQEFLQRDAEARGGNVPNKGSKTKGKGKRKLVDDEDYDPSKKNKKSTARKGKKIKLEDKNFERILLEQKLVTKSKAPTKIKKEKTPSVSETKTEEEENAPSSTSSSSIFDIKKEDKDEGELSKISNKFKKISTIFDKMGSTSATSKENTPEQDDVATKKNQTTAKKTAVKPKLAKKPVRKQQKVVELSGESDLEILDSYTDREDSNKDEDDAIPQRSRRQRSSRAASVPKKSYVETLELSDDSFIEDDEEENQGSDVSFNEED

[7] = Stability in PBS and growth media; type: physicochemical; conditions: phosphate-buffered saline and growth media used for antibacterial and antifungal tests
Text: CIP-S-S-TP10-NH2 was stable in phosphate-buffered saline (PBS) and growth media used for the determination of antibacterial and antifungal in vitro activity.

[8] = system: S. aureus ATCC 25,923 cells; assay: Stability inside bacterial cells (LC-MS of cell lysate)

SMILES	MIC50 (S. aureus ATCC 29213) [µM]	MIC90 (S. aureus ATCC 29213) [µM]	MIC50 [1] [µM]	MIC90 [1] [µM]	MIC50 (E. coli ATCC 25922) [µM]	MIC90 (E. coli ATCC 25922) [µM]	MIC50 (P. aeruginosa ATCC 27853) [µM]	MIC90 (P. aeruginosa ATCC 27853) [µM]	IC50 (HEK 293 [2]) [µM]	IC50 (Hep G2) [µM]	IC50 (LLC-PK1) [µM]	MIC50 (C. albicans SC 5314) [µM]	MIC90 (C. albicans SC 5314) [µM]	MIC50 [3] [µM]	MIC90 [3] [µM]	MIC50 (C. albicans Gu4) [µM]	MIC50 (C. glabrata DSM 11226) [µM]	MIC50 (C. krusei DSM 6128) [µM]	ROS HEK 293 (HEK 293 [5])	ROS HL-60 (HL-60)	also measured
CC[C@H](C)[C@H](NC(=O)[C@H](CCCCN)NC(=O)[C@H](CCCCN)NC(=O)[C@H](C)NC(=O)[C@H](CC(C)C)NC(=O)[C@H](C)NC(=O)[C@H](C)NC(=O)[C@H](CC(C)C)NC(=O)[C@H](C)NC(=O)[C@H](CCCCN)NC(=O)[C@H](CC(C)C)NC(=O)[C@H](CC(N)=O)NC(=O)[C@@H](NC(=O)[C@H](CCCCN)NC(=O)CNC(=O)[C@H](CC(C)C)NC(=O)[C@H](CC(C)C)NC(=O)[C@H](Cc1ccc(O)cc1)NC(=O)CNC(=O)[C@H](C)NC(=O)CN1CCN(c2cc3c(cc2F)c(=O)c(C(=O)O)cn3C2CC2)CC1)[C@@H](C)CC)C(=O)N[C@@H](CC(C)C)C(N)=O [Compound 1, CIP-CH2CO-TP10-NH2]	12.5 (≈ 31.9 µg/mL)	12.5 (≈ 31.9 µg/mL)	6.25 (≈ 16 µg/mL)	12.5 (≈ 31.9 µg/mL)	25 (≈ 63.8 µg/mL)	25 (≈ 63.8 µg/mL)	>100	>100	10.8 ± 1.87	21.7 ± 2.18	17.8 ± 1.93	50 (≈ 128 µg/mL)	100 (≈ 255 µg/mL)	100 (≈ 255 µg/mL)	200 (≈ 511 µg/mL)	50 (≈ 128 µg/mL)	>200	50 (≈ 128 µg/mL)			Influence of salts (MHB2 vs MHB) on antibacterial activity (bacteria): slight decrease of antibacterial activity
CC[C@H](C)[C@H](NC(=O)[C@H](CCCCN)NC(=O)[C@H](CCCCN)NC(=O)[C@H](C)NC(=O)[C@H](CC(C)C)NC(=O)[C@H](C)NC(=O)[C@H](C)NC(=O)[C@H](CC(C)C)NC(=O)[C@H](C)NC(=O)[C@H](CCCCN)NC(=O)[C@H](CC(C)C)NC(=O)[C@H](CC(N)=O)NC(=O)[C@@H](NC(=O)[C@H](CCCCN)NC(=O)CNC(=O)[C@H](CC(C)C)NC(=O)[C@H](CC(C)C)NC(=O)[C@H](Cc1ccc(O)cc1)NC(=O)CNC(=O)[C@H](C)NC(=O)c1cn(C2CC2)c2cc(N3CCNCC3)c(F)cc2c1=O)[C@@H](C)CC)C(=O)N[C@@H](CC(C)C)C(N)=O [Compound 2, CIP-TP10-NH2]	0.8 (≈ 2 µg/mL)	0.8 (≈ 2 µg/mL)	1.6 (≈ 3.99 µg/mL)	1.6 (≈ 3.99 µg/mL)	1.6 (≈ 3.99 µg/mL)	1.6 (≈ 3.99 µg/mL)			10.4 ± 1.39	11.5 ± 2.03	27.1 ± 1.82	12.5 (≈ 31.2 µg/mL)	12.5 (≈ 31.2 µg/mL)	6.25 (≈ 15.6 µg/mL)	12.5 (≈ 31.2 µg/mL)	25 (≈ 62.4 µg/mL)	>200	50 (≈ 125 µg/mL)	++ (++ <10% positive cells in 24 h)	++ (++ <10% positive cells in 24 h)	MIC values, range over tested bacteria [4]: 0.8 to 3.125 µM; ROS generation (HL-60 and HEK 293 cells): no ROS generation was observed; MHC50 (concentration causing 50% hemolysis) (human red blood cells): 25 µg/mL; MHC50 (concentration causing 50% hemolysis) (human red blood cells; converted from μg/mL): ~ 10 μM
CC[C@H](C)[C@H](NC(=O)[C@H](CCCCN)NC(=O)[C@H](CCCCN)NC(=O)[C@H](C)NC(=O)[C@H](CC(C)C)NC(=O)[C@H](C)NC(=O)[C@H](C)NC(=O)[C@H](CC(C)C)NC(=O)[C@H](C)NC(=O)[C@H](CCCCN)NC(=O)[C@H](CC(C)C)NC(=O)[C@H](CC(N)=O)NC(=O)[C@@H](NC(=O)[C@H](CCCCN)NC(=O)CNC(=O)[C@H](CC(C)C)NC(=O)[C@H](CC(C)C)NC(=O)[C@H](Cc1ccc(O)cc1)NC(=O)CNC(=O)[C@H](C)NC(=O)CCSSCCC(=O)N1CCN(c2cc3c(cc2F)c(=O)c(C(=O)O)cn3C2CC2)CC1)[C@@H](C)CC)C(=O)N[C@@H](CC(C)C)C(N)=O [Compound 3, CIP-S-S-TP10-NH2]	0.8 (≈ 2.15 µg/mL)	0.8 (≈ 2.15 µg/mL)	0.8 (≈ 2.15 µg/mL)	0.8 (≈ 2.15 µg/mL)	0.0125 (≈ 0.0336 µg/mL)	0.025 (≈ 0.0672 µg/mL)	0.8 (≈ 2.15 µg/mL)	1.6 (≈ 4.3 µg/mL)	13.1 ± 1.22	19 ± 2.08	16.8 ± 2.62	6.25 (≈ 16.8 µg/mL)	25 (≈ 67.2 µg/mL)	12.5 (≈ 33.6 µg/mL)	25 (≈ 67.2 µg/mL)	6.25 (≈ 16.8 µg/mL)	>200	25 (≈ 67.2 µg/mL)	++ (++ <10% positive cells in 24 h)	+ (+ <15% positive cells in 24 h)	IC50 [6]: < 50 µM; ROS generation (HL-60 and HEK 293 cells): no ROS generation was observed; Stability in PBS and growth media [7]: stable; Stability inside bacterial cells [8]: reduced inside the cell
